Measured values taken from patent US11236047B2 (ASTEX THERAPEUTICS LIMITED, priority 2017, dated 2022).
Where two headings read alike, the source gives them in different places. Values belong to the compound of their own block, whether it stands above or below them.

How the values were obtained:
MDM2-p53 interaction = MDM2-p53 interaction (Homo sapiens (Human), UniProt Q00987); details: for inhibition at 0.001 µM: read-out: MDM2 % inhibition @0.0010; for inhibition at 0.03 µM: read-out: MDM2 % inhibition @0.030; for inhibition at 0.1 µM: read-out: MDM2 % inhibition @0.10
MDM2-p53 interaction, sequence (Q00987 whole entry): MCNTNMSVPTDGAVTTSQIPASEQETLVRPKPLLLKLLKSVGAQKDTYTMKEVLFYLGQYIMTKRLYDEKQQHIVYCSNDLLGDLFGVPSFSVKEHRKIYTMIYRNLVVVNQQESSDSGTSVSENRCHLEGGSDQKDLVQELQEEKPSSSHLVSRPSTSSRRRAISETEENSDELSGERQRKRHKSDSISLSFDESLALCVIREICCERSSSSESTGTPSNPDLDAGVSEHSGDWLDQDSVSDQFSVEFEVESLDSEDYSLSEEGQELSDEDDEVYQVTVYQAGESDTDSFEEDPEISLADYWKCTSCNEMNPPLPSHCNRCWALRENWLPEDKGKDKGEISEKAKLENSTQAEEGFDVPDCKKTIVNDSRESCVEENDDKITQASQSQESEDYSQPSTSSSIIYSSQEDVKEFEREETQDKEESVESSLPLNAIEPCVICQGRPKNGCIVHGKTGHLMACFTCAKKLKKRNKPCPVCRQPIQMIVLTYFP

SJSA-1 cells = assay: Protocol B: SJSA-1 CellTiter-Glo luminescent cell viability assay
SN40R2 cells = assay: Protocol B: SN40R2 CellTiter-Glo luminescent cell viability assay; details: read-out: SN40R2 % inhibition at 10
[1] = read-out: SJSA1 IC50, Protocol B, SJSA-1
[2] = read-out: SJSA1 IC50 (μM) (Protocol B), SJSA-1, Protocol B
[3] = Homo sapiens, SJSA-1, read-out: SJSA1 IC50 (μM), Protocol B, SJSA-1

inhibition at 0.001 µM (MDM2-p53 interaction): 56% | IC50 (SJSA-1 cells; [1]): 0.16 µM
SMILES: CCC(O)(c1cc(F)c2c(c1)C(=O)N(Cc1ccc(C#N)cn1)[C@@]2(O[C@H]1CCOC1)c1ccc(Cl)cc1)c1ccn(C)n1 (single isomer, unassigned) [Example 336]

MDM2 % at stated concentration (MDM2-p53 interaction; at 0.10 μM): 25%@0.10 | IC50 (SJSA-1 cells; [2]): 4.3 µM
SMILES: Cn1cc(C(C)(O)c2cc(F)c3c(c2)C(=O)N(Cc2ncc(F)cc2F)[C@@]3(OCC2(O)CC2)c2ccc(Cl)cc2)cn1 (single isomer, unassigned) [Example 351]

MDM2 % at stated concentration (MDM2-p53 interaction): 74%@0.0010 | IC50 (SJSA-1 cells; [2]): 0.039 µM
SMILES: CCC(O)(c1cc(F)c2c(c1)C(=O)N(Cc1ccc(C#N)cn1)[C@@]2(O[C@H]1CCOC1)c1ccc(Cl)cc1)c1cnn(C)c1 (single isomer, unassigned) [Example 358]

MDM2 % at stated concentration (MDM2-p53 interaction): 62%@0.0010
SMILES: Cn1cc(C(C)(O)c2cc(F)c3c(c2)C(=O)N(Cc2ccc(Cl)c[n+]2[O-])[C@@]3(OCC2(CO)CC2)c2ccc(Cl)cc2)cn1 (single isomer, unassigned) [Example 407]

inhibition at 0.03 µM (MDM2-p53 interaction): 45% | IC50 (SJSA-1 cells; [1]): 6.2 µM
SMILES: CCC(O)(c1cc(F)c2c(c1)C(=O)N(Cc1ccc(C#N)nc1)[C@@]2(O[C@H]1CCOC1)c1ccc(Cl)cc1)c1cn(C)cn1 (single isomer, unassigned) [Example 432]

inhibition at 0.01 µM (MDM2-p53 interaction; read-out: MDM2 % inhibition @0.010): 44%
SMILES: CO[C@]1(c2ccc(Cl)cc2)c2c(F)cc(C(C)(O)c3cnn(C4CN(C(=O)OC(C)(C)C)C4)c3)cc2C(=O)N1Cc1ccc(Cl)cn1 (single isomer, unassigned) [Example 458]

inhibition at 0.001 µM (MDM2-p53 interaction): 58% | IC50 (SJSA-1 cells; [1]): 0.2 µM
SMILES: CCC(O)(c1cc(F)c2c(c1)C(=O)N(Cc1ncc(C#N)cn1)[C@@]2(OC[C@H]1C[C@H](O)C1)c1ccc(Cl)cc1)c1cn(C)cn1 (single isomer, unassigned) [Example 483]

inhibition at 0.001 µM (MDM2-p53 interaction): 68%
SMILES: CCC(O)(c1cc(F)c2c(c1)C(=O)N(Cc1ccc(C#N)cn1)[C@@]2(OCCO)c1ccc(Cl)cc1)C1(F)CCOCC1 (single isomer, unassigned) [Example 499]

MDM2 % at stated concentration (MDM2-p53 interaction; at 0.030 μM): 50%@0.030
SMILES: CC(C)(O)c1cc(F)c2c(c1)C(=O)N(Cc1ccc(Cl)cn1)[C@@]2(OCC1(CNCCO)CC1)c1ccc(Cl)cc1 [Example 326, (3R)-3-(4-chlorophenyl)-2-[(5-chloropyridin-2-yl)methyl]-4-fluoro-3-[(1-{[(2-hydroxyethyl)amino]methyl}cyclopropyl)methoxy]-6-(2-hydroxypropan-2-yl)-2,3-dihydro-1H-isoindol-1-one]

MDM2 % at stated concentration (MDM2-p53 interaction; at 0.030 μM): 49%@0.030
SMILES: CC(C)(O)c1cc(F)c2c(c1)C(=O)N([C@H](c1ccc(Cl)cn1)C(O)CO)[C@@]2(OCC1(O)CC1)c1ccc(Cl)cc1 (stereo partly drawn) [Example 331, (3R)-3-(4-Chlorophenyl)-2-[(1R)-1-(5-chloropyridin-2-yl)-2,3-dihydroxypropyl]-4-fluoro-3-[(1-hydroxycyclopropyl)methoxy]-6-(2-hydroxypropan-2-yl)-2,3-dihydro-1H-isoindol-1-one]

inhibition at 0.03 µM (MDM2-p53 interaction): 43%
SMILES: Cn1cc(C(O)(c2cc(F)c3c(c2)C(=O)N(Cc2ccc(C#N)cn2)[C@@]3(O[C@H]2CCOC2)c2ccc(Cl)cc2)C(F)(F)F)cn1 (stereo partly drawn) [Example 371, 6-{[(1R)-1-(4-chlorophenyl)-7-fluoro-3-oxo-1-[(3S)-oxolan-3-yloxy]-5-[2,2,2-trifluoro-1-hydroxy-1-(1-methyl-1H-pyrazol-4-yl)ethyl]-2,3-dihydro-1H-isoindol-2-yl]methyl}pyridine-3-carbonitrile]

inhibition at 0.1 µM (MDM2-p53 interaction): 65%
SMILES: CCC(O)(c1cc(F)c2c(c1)C(=O)N(Cc1ccc(C#N)cn1)[C@@]2(OCCOC)c1ccc(Cl)cc1)c1cn(C)cn1 (stereo partly drawn) [Example 429, 6-{[(1R)-1-(4-chlorophenyl)-7-fluoro-5-[1-hydroxy-1-(1-methyl-1H-imidazol-4-yl)propyl]-1-(2-methoxyethoxy)-3-oxo-2,3-dihydro-1H-isoindol-2-yl]methyl}pyridine-3-carbonitrile]

The remaining lines, values behind:

SMILES: CO[C@]1(c2ccc(Cl)cc2)c2ccc(C(C)(O)C(=O)NCCN(C)C)cc2C(=O)N1Cc1ccc(Cl)cn1 (single isomer, unassigned) [Example 149]
MDM2 % at stated concentration (MDM2-p53 interaction; at 1.0 μM): 53%@1.0

SMILES: CO[C@]1(c2ccc(Cl)cc2)c2ccc(C(C)(O)C(=O)NCCN(C)C)cc2C(=O)N1Cc1ccc(Cl)cn1 (single isomer, unassigned) [Example 150]
MDM2 % at stated concentration (MDM2-p53 interaction; at 0.10 μM): 49%@0.10

SMILES: CC(=O)N1CCC(C(C)(O)c2cc(F)c3c(c2)C(=O)N(Cc2ccc(Cl)cn2)[C@@]3(OCC2(C#N)CC2)c2ccc(Cl)cc2)CC1 (single isomer, unassigned) [Example 301]
MDM2 % at stated concentration (MDM2-p53 interaction): 75%@0.0010

SMILES: Cn1cc(C(C)(O)c2cc(F)c3c(c2)C(=O)N(Cc2ncc(F)cc2F)[C@@]3(OCC2(O)CC2)c2ccc(Cl)cc2)cn1 (single isomer, unassigned) [Example 350]
MDM2 % at stated concentration (MDM2-p53 interaction; at 0.030 μM): 54%@0.030 | IC50 (SJSA-1 cells; [2]): 0.51 µM

SMILES: CCC(O)(c1cc(F)c2c(c1)C(=O)N(Cc1ccc(C#N)cn1)[C@@]2(O[C@H]1CCOC1)c1ccc(Cl)cc1)c1cnn(C)c1 (single isomer, unassigned) [Example 359]
MDM2 % at stated concentration (MDM2-p53 interaction; at 0.10 μM): 50%@0.10 | IC50 (SJSA-1 cells; [2]): 3.9 µM

SMILES: CO[C@]1(c2ccc(Cl)cc2)c2c(F)cc(C(C)(O)C3CCN(C(C)=O)CC3)cc2C(=O)N1Cc1ncc(Cl)cc1CO (single isomer, unassigned) [Example 424]
inhibition at 0.003 µM (MDM2-p53 interaction; read-out: MDM2 % inhibition @0.0030): 45% | IC50 (SJSA-1 cells; [3]): 0.69 µM

SMILES: CCC(O)(c1cc(F)c2c(c1)C(=O)N(Cc1ncc(Cl)cn1)[C@@]2(OCC1(CO)CC1)c1ccc(Cl)cc1)c1cn(C)cn1 (single isomer, unassigned) [Example 477]
inhibition at 0.001 µM (MDM2-p53 interaction): 86% | IC50 (SJSA-1 cells; [1]): 0.0091 µM

SMILES: CCC(O)(c1cc(F)c2c(c1)C(=O)N(Cc1ccc(C#N)cn1)[C@@]2(OC[C@@H](C)O)c1ccc(Cl)cc1)C1(F)CCOCC1 (single isomer, unassigned) [Example 497]
inhibition at 0.001 µM (MDM2-p53 interaction): 83%

SMILES: CCC(O)(c1cc(F)c2c(c1)C(=O)N(Cc1ncc(Cl)cn1)[C@@]2(OCCO)c1ccc(Cl)cc1)[C@H]1CC[C@H](O)CC1 (single isomer, unassigned) [Example 519]
inhibition at 0.03 µM (MDM2-p53 interaction): 35% | IC50 (SJSA-1 cells; [1]): 1.9 µM

SMILES: CCC(O)(CN1CCNCC1)c1cc(F)c2c(c1)C(=O)N(Cc1ncc(Cl)cn1)[C@@]2(OCC1(F)COC1)c1ccc(Cl)cc1 (single isomer, unassigned) [Example 539]
inhibition at 0.001 µM (MDM2-p53 interaction): 41% | IC50 (SJSA-1 cells; [1]): 0.092 µM

SMILES: CO[C@]1(c2ccc(Cl)cc2)c2c(F)cc(C(C)(O)c3cnn(C4CN(C(=O)OC(C)(C)C)C4)c3)cc2C(=O)N1Cc1ccc(Cl)cn1 (stereo partly drawn) [Example 457, tert-Butyl 3-(4-{1-[(1R)-1-(4-chlorophenyl)-2-[(5-chloropyridin-2-yl)methyl]-7-fluoro-1-methoxy-3-oxo-2,3-dihydro-1H-isoindol-5-yl]-1-hydroxyethyl}-1H-pyrazol-1-yl)azetidine-1-carboxylate]
inhibition at 0.3 µM (MDM2-p53 interaction; read-out: MDM2 % inhibition @0.30): 53%

SMILES: CCC(O)(c1cc(F)c2c(c1)C(=O)N(Cc1ncc(C#N)cn1)[C@@]2(OCC1(C#N)CC1)c1ccc(Cl)cc1)c1cn(C)cn1 (stereo partly drawn) [Example 463, 2-{[(1R)-1-(4-chlorophenyl)-1-[(1-cyanocyclopropyl)methoxy]-7-fluoro-5-[1-hydroxy-1-(1-methyl-1H-imidazol-4-yl)propyl]-3-oxo-2,3-dihydro-1H-isoindol-2-yl]methyl}pyrimidine-5-carbonitrile]
inhibition at 0.1 µM (MDM2-p53 interaction): 73%

SMILES: CCCC(O)(c1cc(F)c2c(c1)C(=O)N(Cc1ccc(C#N)cn1)[C@@]2(O[C@H]1CCOC1)c1ccc(Cl)cc1)c1cn(C)cn1 (stereo partly drawn) [Example 473, 6-{[(1R)-1-(4-chlorophenyl)-7-fluoro-5-[1-hydroxy-1-(1-methyl-1H-imidazol-4-yl)butyl]-3-oxo-1-[(3S)-oxolan-3-yloxy]-2,3-dihydro-1H-isoindol-2-yl]methyl}pyridine-3-carbonitrile]
inhibition at 0.1 µM (MDM2-p53 interaction): 44%

SMILES: CCC(O)(c1cc(F)c2c(c1)C(=O)N(Cc1ncc(Cl)cc1O)[C@@]2(O[C@H]1C[C@@H](O)C1)c1ccc(Cl)cc1)c1cn(C)cn1 (stereo partly drawn) [Example 488, (3R)-2-[(5-chloro-3-hydroxypyridin-2-yl)methyl]-3-(4-chlorophenyl)-4-fluoro-6-[1-hydroxy-1-(1-methyl-1H-imidazol-4-yl)propyl]-3-[cis-3-hydroxycyclobutoxy]-2,3-dihydro-1H-isoindol-1-one]
inhibition at 0.1 µM (MDM2-p53 interaction): 56%

SMILES: CCC(O)(c1cc(F)c2c(c1)C(=O)N(Cc1ncc(C#N)cn1)[C@@]2(OC[C@@H](C)O)c1ccc(Cl)cc1)[C@H]1CC[C@H](O)CC1 (stereo partly drawn) [Example 512, 2-{[(1R)-1-(4-chlorophenyl)-7-fluoro-5-{1-hydroxy-1-[trans-4-hydroxycyclohexyl]propyl}-1-[(2R)-2-hydroxypropoxy]-3-oxo-2,3-dihydro-1H-isoindol-2-yl]methyl}pyrimidine-5-carbonitrile]
IC50 (SJSA-1 cells; [3]): 0.025 µM | inhibition at 10 µM (SN40R2 cells): 5%

SMILES: CC[C@](O)(c1cc(F)c2c(c1)C(=O)N(Cc1ncc(Cl)cn1)[C@@]2(O[C@H]1CCOC1)c1ccc(Cl)cc1)C1CCN(C)CC1 [Example 567, (3R)-3-(4-chlorophenyl)-2-[(5-chloropyrimidin-2-yl)methyl]-4-fluoro-6-[(1R)-1-hydroxy-1-(1-methylpiperidin-4-yl)propyl]-3-[(3S)-oxolan-3-yloxy]-2,3-dihydro-1H-isoindol-1-one]
inhibition at 0.1 µM (MDM2-p53 interaction): 57%

SMILES: CC(O)(c1cc(F)c2c(c1)C(=O)N(Cc1ncc(Cl)cn1)[C@@]2(OCCO)c1ccc(Cl)cc1)C1(F)CCOCC1 (stereo partly drawn) [Example 578, (3R)-3-(4-chlorophenyl)-2-[(5-chloropyrimidin-2-yl)methyl]-4-fluoro-6-[1-(4-fluorooxan-4-yl)-1-hydroxyethyl]-3-(2-hydroxyethoxy)-2,3-dihydro-1H-isoindol-1-one]
IC50 (SJSA-1 cells; [3]): 0.12 µM | inhibition at 10 µM (SN40R2 cells): 4%
